Data on five compounds can be found in US12679878B2, “CRF2 receptor agonists and their use in therapy” (SANOFI, priority 2020, dated 2026).

The structures appear in SMILES notation. Starred links: 1 amine or outer side, 2 acyl side, 3 side chain; linkers in the order of their positions; H or OH if unused. Non-standard residues stand in square brackets, D forms with d. Residues, ends and D or L forms follow the SMILES beside them. Groups on a side chain read outwards from the residue. *: point of attachment. γGlu = O=C(O)[C@H](CCC(=O)[*:2])N[*:1]; Palmitoyl = CCCCCCCCCCCCCCCC(=O)*; Aib = CC(C)(N)C(=O)O

By EC50 is commonly meant the concentration at which the effect is half-maximal. By Emax is commonly meant the greatest response seen or fitted, relative to the assay's reference.

For assay [1], the target named is T1, human CRF2α receptor (Homo sapiens, UniProt Q13324).
T1 construct: expressed in transfected cells; host or cells: TeloHEAC
T1 sequence (Q13324 1-411): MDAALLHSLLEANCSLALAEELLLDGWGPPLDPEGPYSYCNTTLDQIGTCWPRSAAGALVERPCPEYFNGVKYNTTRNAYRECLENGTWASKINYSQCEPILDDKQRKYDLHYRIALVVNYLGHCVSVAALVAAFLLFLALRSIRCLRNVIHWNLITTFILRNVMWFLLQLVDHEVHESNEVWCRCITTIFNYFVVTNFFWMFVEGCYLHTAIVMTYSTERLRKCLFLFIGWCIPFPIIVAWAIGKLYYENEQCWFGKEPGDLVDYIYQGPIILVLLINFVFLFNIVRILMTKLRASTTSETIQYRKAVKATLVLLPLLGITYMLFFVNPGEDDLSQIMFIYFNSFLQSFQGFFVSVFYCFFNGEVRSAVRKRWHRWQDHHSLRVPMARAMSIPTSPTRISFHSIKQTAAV
The assay can be described thus: cAMP agonism at human CRF2 α receptor in TeloHEAC cells (Example 7). It is filed as cell-based. The note with it: cAMP HTRF, TeloHEAC cells stably expressing human CRF2 α, 0% HSA; read-out: EC50 [nM], 0% HSA. The method in brief:
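Thawed frozen stably transfected cells in HBSS/20 mM HEPES (0% or 0.1% HSA) plus 2 mM IBMX were exposed to compound at 2000 cells/well for 30 min at room temperature. Intracellular cAMP was read by HTRF (665/620 nm ratio) after 1 h lysis; EC50 was derived with 1000 nM urocortin 2 set as 100%.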

Assay [2] has as its target T2, CRF1R receptor (Homo sapiens, UniProt P34998).
T2 construct: host or cells: CHO-K1 clone 2
T2 sequence (P34998 24-415): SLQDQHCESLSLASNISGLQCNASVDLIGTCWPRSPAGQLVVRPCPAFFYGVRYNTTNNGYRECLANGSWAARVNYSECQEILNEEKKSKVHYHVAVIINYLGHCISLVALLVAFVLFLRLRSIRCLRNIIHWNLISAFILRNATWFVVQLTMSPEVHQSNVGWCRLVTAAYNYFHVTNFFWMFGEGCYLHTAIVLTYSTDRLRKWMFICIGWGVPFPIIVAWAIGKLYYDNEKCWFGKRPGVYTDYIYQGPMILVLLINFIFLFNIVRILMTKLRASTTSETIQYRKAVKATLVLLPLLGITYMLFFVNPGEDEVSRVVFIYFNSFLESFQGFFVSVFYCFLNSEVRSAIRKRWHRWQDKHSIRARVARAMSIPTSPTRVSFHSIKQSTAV
Put plainly: cAMP activity at anti-target CRF1R, CHO-K1 cell line clone 2 (Example 19.10). The format is cell-based. The note with it: CRF1R CHO-K1 clone 2; for EC50: 0% HSA, read-out: EC50 [nM] 0% HSA; for Emax: 100% = Sauvagine at 100 nM. The procedure: The CRF1R-overexpression CHO-K1 cell line clone 2 was purchased from PerkinElmer.
Cells were grown in a 10 cm dish at 37° C./5% CO2 in medium (F12 (Hams)/10% FBS/400 μg/ml G418) to near confluence. At that stage, cells were harvested, resuspended to 10 million/mL in culture medium without G418 and with 10% DMSO. 1 mL vial aliquots were slowly frozen to -80° C. in isopropanol and then transferred in liquid nitrogen for storage. These vials were used to run the experiment following the procedure reported 10 in the previous paragraph, except for the compound used in the control well to define the 100% activation (Sauvagine at 100 nM)

In the case of `CCCCCCCCCCCCCCCC(=O)N[C@@H](CCC(=O)NCCCC[C@H](NC(=O)[C@H](CC(C)C)NC(=O)[C@H](CCCCN)NC(=O)[C@@H](NC(=O)[C@@H]1CCCN1C(=O)[C@H](NC(=O)[C@H](CC(=O)O)NC(=O)[C@H](CC(C)C)NC(=O)[C@H](CO)NC(=O)[C@H](CC(C)C)NC(=O)[C@@H](NC(=O)[C@@H](N)[C@@H](C)CC)C(C)C)C(C)C)[C@@H](C)O)C(=O)N[C@@H](CCCCN)C(=O)N[C@@H](CCCCN)C(=O)N[C@@H](CC(C)C)C(=O)N[C@@H](CC(C)C)C(=O)N[C@@H](CCCCN)C(=O)N[C@@H](CCC(N)=O)C(=O)N[C@@H](CCC(=O)O)C(=O)N[C@@H](CCCNC(=N)N)C(=O)N[C@@H](CCCCN)C(=O)N[C@@H](CCCNC(=N)N)C(=O)N[C@@H](CCCCN)C(=O)N[C@@H](CCC(=O)O)C(=O)N[C@@H](CCCNC(=N)N)C(=O)N[C@@H](CCC(=O)O)C(=O)N[C@@H](CCCCN)C(=O)N[C@@H](C)C(=O)N[C@@H](CCC(=O)O)C(=O)N[C@@H](CCCCN)C(=O)N[C@@H](CC(N)=O)C(=O)N[C@@H](C)C(=O)N[C@@H](CCCNC(=N)N)C(=O)N[C@H](C(=O)N[C@@H](CC(C)C)C(=O)N[C@@H](CCC(=O)O)C(=O)N[C@@H](CCCNC(=N)N)C(=O)N[C@H](C(N)=O)C(C)C)[C@@H](C)CC)C(=O)O` [compound 25] (H-IVLSLD[dV]PTKLK([γGlu-Palmitoyl])KKLLKQERKRKEREKAEKNARILERV-NH2), the results for the EC50 in assay [1] and in assay [2] were 0.09 nM and greater than 100 nM, respectively. The Emax in assay [2] was 0.1%.
As for `CCCCCCCCCCCCCCCC(=O)N[C@@H](CCC(=O)NCCCC[C@H](NC(=O)[C@H](CC(C)C)NC(=O)[C@H](CCCCN)NC(=O)[C@@H](NC(=O)[C@@H]1CCCN1C(=O)[C@H](NC(=O)[C@H](CC(=O)O)NC(=O)[C@H](CC(C)C)NC(=O)[C@H](CO)NC(=O)[C@H](CC(C)C)NC(=O)[C@@H](NC(=O)[C@@H](N)[C@@H](C)CC)C(C)C)C(C)C)[C@@H](C)O)C(=O)N[C@@H](CCCCN)C(=O)N[C@@H](CCCCN)C(=O)N[C@@H](CC(C)C)C(=O)N[C@@H](CC(C)C)C(=O)N[C@@H](CCCCN)C(=O)N[C@@H](CCC(N)=O)C(=O)N[C@@H](CCC(=O)O)C(=O)N[C@@H](CCCNC(=N)N)C(=O)N[C@@H](CCCCN)C(=O)N[C@@H](CCCNC(=N)N)C(=O)N[C@@H](CCCCN)C(=O)N[C@@H](CCC(=O)O)C(=O)N[C@@H](CCCNC(=N)N)C(=O)N[C@@H](CCC(=O)O)C(=O)NC(C)(C)C(=O)N[C@@H](C)C(=O)N[C@@H](CCC(=O)O)C(=O)N[C@@H](CCCCN)C(=O)N[C@@H](CC(N)=O)C(=O)N[C@@H](C)C(=O)N[C@@H](CCCNC(=N)N)C(=O)N[C@H](C(=O)N[C@@H](CC(C)C)C(=O)N[C@@H](CCC(=O)O)C(=O)N[C@@H](CCCNC(=N)N)C(=O)N[C@H](C(N)=O)C(C)C)[C@@H](C)CC)C(=O)O` [compound 26] (H-IVLSLD[dV]PTKLK([γGlu-Palmitoyl])KKLLKQERKRKERE[Aib]AEKNARILERV-NH2; N-terminus assumed), the EC50 in assay [1] is 0.01 nM. Besides, in assay [2], the EC50 was greater than 100 nM and the Emax turned out to be 0.6%.
`CCCCCCCCCCCCCCCC(=O)N[C@@H](CCC(=O)NCCCC[C@H](NC(=O)[C@H](CC(C)C)NC(=O)[C@H](CCCCN)NC(=O)[C@@H](NC(=O)[C@@H]1CCCN1C(=O)[C@H](NC(=O)[C@H](CC(=O)O)NC(=O)[C@H](CC(C)C)NC(=O)[C@H](CO)NC(=O)[C@H](CC(C)C)NC(=O)[C@@H](NC(=O)[C@@H](N)[C@@H](C)CC)C(C)C)C(C)C)[C@@H](C)O)C(=O)N[C@@H](CCCCN)C(=O)N[C@@H](CCCCN)C(=O)N[C@@H](CC(C)C)C(=O)N[C@@H](CC(C)C)C(=O)N[C@@H](CCCCN)C(=O)N[C@@H](CCC(N)=O)C(=O)N[C@@H](CCC(=O)O)C(=O)N[C@@H](CCCNC(=N)N)C(=O)N[C@@H](CCCCN)C(=O)N[C@@H](CCCNC(=N)N)C(=O)N[C@@H](CCCCN)C(=O)N[C@@H](CCC(=O)O)C(=O)N[C@@H](CCCNC(=N)N)C(=O)N[C@@H](CCC(=O)O)C(=O)N[C@@H](CCC(N)=O)C(=O)N[C@@H](C)C(=O)N[C@@H](CCC(=O)O)C(=O)N[C@@H](CCCCN)C(=O)N[C@@H](CC(N)=O)C(=O)N[C@@H](C)C(=O)N[C@@H](CCCNC(=N)N)C(=O)N[C@H](C(=O)N[C@@H](CC(C)C)C(=O)N[C@@H](CCC(=O)O)C(=O)N[C@@H](CCCNC(=N)N)C(=O)N[C@H](C(N)=O)C(C)C)[C@@H](C)CC)C(=O)O` [compound 27] (H-IVLSLD[dV]PTKLK([γGlu-Palmitoyl])KKLLKQERKRKEREQAEKNARILERV-NH2; N-terminus assumed): the EC50 in assay [1] worked out at 0.01 nM. Besides, in assay [2], the EC50 was greater than 100 nM and the Emax amounted to 34.2%.
In the same order, the values of `CCCCCCCCCCCCCCCC(=O)N[C@@H](CCC(=O)NCCCC[C@H](NC(=O)[C@H](CC(C)C)NC(=O)[C@H](CCCCN)NC(=O)[C@@H](NC(=O)[C@@H]1CCCN1C(=O)[C@H](NC(=O)[C@H](CC(=O)O)NC(=O)[C@H](CC(C)C)NC(=O)[C@H](CO)NC(=O)[C@H](CC(C)C)NC(=O)[C@@H](NC(=O)[C@@H](N)[C@@H](C)CC)C(C)C)C(C)C)[C@@H](C)O)C(=O)N[C@@H](CCCCN)C(=O)N[C@@H](CCCCN)C(=O)N[C@@H](CC(C)C)C(=O)N[C@@H](CC(C)C)C(=O)N[C@@H](CCCCN)C(=O)N[C@@H](CCC(N)=O)C(=O)N[C@@H](CCC(=O)O)C(=O)N[C@@H](CCCNC(=N)N)C(=O)N[C@@H](CCCCN)C(=O)N[C@@H](CCCNC(=N)N)C(=O)N[C@@H](CCCCN)C(=O)N[C@@H](CCC(=O)O)C(=O)N[C@@H](CCCNC(=N)N)C(=O)N[C@@H](CCC(=O)O)C(=O)N[C@@H](CCCCN)C(=O)N[C@@H](C)C(=O)N[C@@H](CCC(=O)O)C(=O)N[C@@H](CCCCN)C(=O)N[C@@H](C)C(=O)N[C@@H](C)C(=O)N[C@@H](CCCNC(=N)N)C(=O)N[C@H](C(=O)N[C@@H](CC(C)C)C(=O)N[C@@H](CCC(=O)O)C(=O)N[C@@H](CCCNC(=N)N)C(=O)N[C@H](C(N)=O)C(C)C)[C@@H](C)CC)C(=O)O` [compound 28] (H-IVLSLD[dV]PTKLK([γGlu-Palmitoyl])KKLLKQERKRKEREKAEKAARILERV-NH2; N-terminus assumed) are 0.14 nM, greater than 100 nM and 8.4%.
In the same order, the values of `CCCCCCCCCCCCCCCC(=O)N[C@@H](CCC(=O)NCCCC[C@H](NC(=O)[C@H](CC(C)C)NC(=O)[C@H](CCCCN)NC(=O)[C@@H](NC(=O)[C@@H]1CCCN1C(=O)[C@H](NC(=O)[C@H](CC(=O)O)NC(=O)[C@H](CC(C)C)NC(=O)[C@H](CO)NC(=O)[C@H](CC(C)C)NC(=O)[C@@H](NC(=O)[C@@H](N)[C@@H](C)CC)C(C)C)C(C)C)[C@@H](C)O)C(=O)N[C@@H](CCCCN)C(=O)N[C@@H](CCCCN)C(=O)N[C@@H](CC(C)C)C(=O)N[C@@H](CC(C)C)C(=O)N[C@@H](CCCCN)C(=O)N[C@@H](CCC(N)=O)C(=O)N[C@@H](CCC(=O)O)C(=O)N[C@@H](CCCNC(=N)N)C(=O)N[C@@H](CCCCN)C(=O)N[C@@H](CCCNC(=N)N)C(=O)N[C@@H](CCCCN)C(=O)N[C@@H](CCC(=O)O)C(=O)N[C@@H](CCCNC(=N)N)C(=O)N[C@@H](CCC(=O)O)C(=O)NC(C)(C)C(=O)N[C@@H](C)C(=O)N[C@@H](CCC(=O)O)C(=O)N[C@@H](CCCCN)C(=O)N[C@@H](C)C(=O)N[C@@H](C)C(=O)N[C@@H](CCCNC(=N)N)C(=O)N[C@H](C(=O)N[C@@H](CC(C)C)C(=O)N[C@@H](CCC(=O)O)C(=O)N[C@@H](CCCNC(=N)N)C(=O)N[C@H](C(N)=O)C(C)C)[C@@H](C)CC)C(=O)O` [compound 29] (H-IVLSLD[dV]PTKLK([γGlu-Palmitoyl])KKLLKQERKRKERE[Aib]AEKAARILERV-NH2; N-terminus assumed) are 0.12 nM, greater than 100 nM and 18.4%.
